Data from patent publication US20240158446A1, “CYCLIC COMPOUND HAVING SELECTIVE INHIBITORY ACTION ON KRAS OVER HRAS AND NRAS” (CHUGAI SEIYAKU KABUSHIKI KAISHA, priority 2021, published 2024).

How the values were obtained:
[1] = target: GDP-bound HRAS wild-type protein (Homo sapiens, UniProt P01112); assay: Binding to HRAS by surface plasmon resonance (SPR), Single Cycle Kinetics; settings: SPR, GDP-bound HRAS wild-type protein vs GDP-bound KRAS wild-type protein
[2] = target: GDP-bound KRAS wild-type protein (Homo sapiens, UniProt P01116); assay: Binding to KRAS by surface plasmon resonance (SPR), Single Cycle Kinetics; settings: SPR, Single Cycle Kinetics, GDP-bound KRAS wild-type protein; read-out: KRAS KD
[3] = tested on: human lung cancer strain NCI-H441;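 note: cell proliferation inhibition after four days measured by CellTiter-Glo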
[4] = target: GDP-bound NRAS wild-type protein (Homo sapiens, UniProt P01111); assay: Binding to NRAS by surface plasmon resonance (SPR), Single Cycle Kinetics; settings: SPR, GDP-bound NRAS wild-type protein vs GDP-bound KRAS wild-type protein
Chain of GDP-bound NRAS wild-type protein (P01111 whole entry): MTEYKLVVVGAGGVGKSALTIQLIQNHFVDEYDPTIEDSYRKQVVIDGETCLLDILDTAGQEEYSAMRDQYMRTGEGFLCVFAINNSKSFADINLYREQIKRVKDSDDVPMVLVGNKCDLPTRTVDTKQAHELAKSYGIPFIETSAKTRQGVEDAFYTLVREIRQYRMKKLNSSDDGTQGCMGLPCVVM

Chain of GDP-bound HRAS wild-type protein (P01112 whole entry): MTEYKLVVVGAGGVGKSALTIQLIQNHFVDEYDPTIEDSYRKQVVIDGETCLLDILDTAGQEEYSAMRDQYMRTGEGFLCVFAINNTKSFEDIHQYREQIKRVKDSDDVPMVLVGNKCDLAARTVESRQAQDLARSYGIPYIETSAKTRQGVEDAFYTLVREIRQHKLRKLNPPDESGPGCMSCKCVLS
Chain of GDP-bound KRAS wild-type protein (P01116 whole entry): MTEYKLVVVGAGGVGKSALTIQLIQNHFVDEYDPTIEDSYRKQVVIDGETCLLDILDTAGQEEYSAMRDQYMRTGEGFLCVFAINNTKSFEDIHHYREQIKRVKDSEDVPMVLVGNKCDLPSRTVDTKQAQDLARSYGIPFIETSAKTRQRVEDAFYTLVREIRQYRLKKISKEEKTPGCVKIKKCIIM

Row | Kd [2] [nM] | IC50 [3] [nM] | Compound | HRAS/KRAS (ratio of KD value for HRAS to KD value for KRAS) [1] | NRAS/KRAS (ratio of KD value for NRAS to KD value for KRAS) [4]
1 | 0.23 | 51.7 | CCCO[C@H](C)[C@@H]1NC(=O)[C@H](COCC)N(C)C(=O)C[C@@H](C(=O)N(C)CC)N(C)C(=O)[C@H](C2CCCC2)N(C)C(=O)C2(CC(C)(C)C2)NC(=O)[C@@H]2C[C@H](C)CN2C(=O)[C@H](CCc2ccc(C(F)(F)F)c(OC)c2)NC(=O)CN(C)C(=O)[C@H](Cc2ccc(C)cc2)N2CC/C=C\C[C@@H](C2=O)N(C)C(=O)CN(C)C1=O [PP2425] | A (a compound having 10 or more and less than 20 is denoted as A) | AA (a compound having 20 or more is denoted as AA)
2 | 0.31 | 48 | CCCO[C@H](C)[C@@H]1NC(=O)[C@H](COCC)N(C)C(=O)C[C@@H](C(=O)N(C)CC)N(C)C(=O)[C@H](C2CCCC2)N(C)C(=O)C2(CC(C)(C)C2)NC(=O)[C@@H]2C[C@H](C)CN2C(=O)[C@H](CCc2cc(F)c(C(F)(F)F)c(F)c2)NC(=O)CN(C)C(=O)[C@H](Cc2ccc(C)cc2)N2CC/C=C\C[C@@H](C2=O)N(C)C(=O)CN(C)C1=O [PP2426] | A (a compound having 10 or more and less than 20 is denoted as A) | AA (a compound having 20 or more is denoted as AA)
3 | 0.7 | 36.6 | CCOC[C@H]1C(=O)N[C@@H]([C@@H](C)CC)C(=O)N2CCC[C@H]2C(=O)N(C)[C@H]2C/C=C\CCN(C2=O)[C@@H](Cc2ccc(C)cc2)C(=O)N(C)CC(=O)N[C@@H](CCc2ccc(C(F)(F)F)c(OC)c2)C(=O)N2C[C@@H](C)C[C@H]2C(=O)NC2(CC(C)(C)C2)C(=O)N(C)[C@@H](C2CCCC2)C(=O)N(C)[C@H](C(=O)N(C)CC)CC(=O)N1C [PP2427] | A (a compound having 10 or more and less than 20 is denoted as A) | AA (a compound having 20 or more is denoted as AA)
4 | 0.62 | 4.8 | CCOC[C@H]1C(=O)N[C@@H]([C@@H](C)CC)C(=O)N2CCC[C@H]2C(=O)N(C)[C@H]2C/C=C\CCN(C2=O)[C@@H](Cc2ccc(C)cc2)C(=O)N(C)CC(=O)N[C@@H](CCc2cc(F)c(C(F)(F)F)c(F)c2)C(=O)N2C[C@H](OCC)C[C@H]2C(=O)NC2(CC(C)(C)C2)C(=O)N(C)[C@@H](C2CCCC2)C(=O)N(C)[C@H](C(=O)N(C)CC)CC(=O)N1C [PP2428] | A (a compound having 10 or more and less than 20 is denoted as A) | A (a compound having 10 or more and less than 20 is denoted as A)
5 | 4.5 | 8.3 | CCCOC[C@H]1C(=O)N[C@@H]([C@@H](C)CC)C(=O)N2CCC[C@H]2C(=O)N(C)[C@H]2C/C=C\CCN(C2=O)[C@@H](Cc2ccc(C)cc2)C(=O)N(C)CC(=O)N[C@@H](CCc2ccc(C(F)(F)F)c(OC)c2)C(=O)N2C[C@@H](C)C[C@H]2C(=O)NC2(CC(C)(C)C2)C(=O)N(C)[C@@H](C2CCCC2)C(=O)N(C)[C@H](C(=O)N(C)CC)CC(=O)N1C [PP2429] | B (a compound having 3 or more and less than 10 is denoted as B) | A (a compound having 10 or more and less than 20 is denoted as A)
6 | 1.4 | 33.2 | CCCOC[C@H]1C(=O)N[C@@H]([C@@H](C)CC)C(=O)N2CCC[C@H]2C(=O)N(C)[C@H]2C/C=C\CCN(C2=O)[C@@H](Cc2ccc(C)cc2)C(=O)N(C)CC(=O)N[C@@H](CCc2cc(F)c(C(F)(F)F)c(F)c2)C(=O)N2C[C@H](C)C[C@H]2C(=O)NC2(CC(C)(C)C2)C(=O)N(C)[C@@H](C2CCCC2)C(=O)N(C)[C@H](C(=O)N(C)CC)CC(=O)N1C [PP2430] | A (a compound having 10 or more and less than 20 is denoted as A) | AA (a compound having 20 or more is denoted as AA)
7 | 2.3 | 79.5 | CCCOC[C@H]1C(=O)N[C@@H]([C@@H](C)OCC)C(=O)N2CCC[C@H]2C(=O)N(C)[C@H]2C/C=C\CCN(C2=O)[C@@H](Cc2ccc(C)cc2)C(=O)N(C)CC(=O)N[C@@H](CCc2ccc(C(F)(F)F)c(OC)c2)C(=O)N2C[C@@H](C)C[C@H]2C(=O)NC2(CC(C)(C)C2)C(=O)N(C)[C@@H](C2CCCC2)C(=O)N(C)[C@H](C(=O)N(C)CC)CC(=O)N1C [PP2431] | A (a compound having 10 or more and less than 20 is denoted as A) | A (a compound having 10 or more and less than 20 is denoted as A)
8 | 1.4 | 138 | CCCOC[C@H]1C(=O)N[C@@H]([C@@H](C)OCC)C(=O)N2CCC[C@H]2C(=O)N(C)[C@H]2C/C=C\CCN(C2=O)[C@@H](Cc2ccc(C)cc2)C(=O)N(C)CC(=O)N[C@@H](CCc2cc(F)c(C(F)(F)F)c(F)c2)C(=O)N2C[C@H](OCC)C[C@H]2C(=O)NC2(CC(C)(C)C2)C(=O)N(C)[C@@H](C2CCCC2)C(=O)N(C)[C@H](C(=O)N(C)CC)CC(=O)N1C [PP2432] | A (a compound having 10 or more and less than 20 is denoted as A) | A (a compound having 10 or more and less than 20 is denoted as A)
9 | 2.1 | 120 | CCOC[C@H]1C(=O)N[C@@H]([C@@H](C)OCC)C(=O)N2CCC[C@H]2C(=O)N(C)[C@H]2C/C=C\CCN(C2=O)[C@@H](Cc2ccc(C)cc2)C(=O)N(C)CC(=O)N[C@@H](CCc2ccc(C(F)(F)F)c(OC)c2)C(=O)N2C[C@@H](C)C[C@H]2C(=O)NC2(CC(C)(C)C2)C(=O)N(C)[C@@H](C2CCCC2)C(=O)N(C)[C@H](C(=O)N(C)CC)CC(=O)N1C [PP2433] | A (a compound having 10 or more and less than 20 is denoted as A) | AA (a compound having 20 or more is denoted as AA)
10 | 1.6 | 126 | CCCO[C@H](C)[C@@H]1NC(=O)[C@H](COCC)N(C)C(=O)C[C@@H](C(=O)N(C)CC)N(C)C(=O)[C@H](C2CCCC2)N(C)C(=O)C2(CC(C)(C)C2)NC(=O)[C@@H]2C[C@@H](OCC)CN2C(=O)[C@H](CCc2cc(F)c(C(F)(F)F)c(F)c2)NC(=O)CN(C)C(=O)[C@H](Cc2ccc(C)cc2)N2CC/C=C\C[C@@H](C2=O)N(C)C(=O)[C@@H]2CCCN2C1=O [PP2436] | A (a compound having 10 or more and less than 20 is denoted as A) | A (a compound having 10 or more and less than 20 is denoted as A)
11 | 0.12 | 18.8 | CC[C@H](C)[C@@H]1NC(=O)[C@H](COC)N(C)C(=O)C[C@@H](C(=O)N(C)CC)N(C)C(=O)[C@H](C2CCCC2)N(C)C(=O)C2(CC(C)(C)C2)NC(=O)[C@@H]2C[C@H](C)CN2C(=O)[C@H](CCc2cc(F)c(C(F)(F)F)c(F)c2)NC(=O)CN(C)C(=O)[C@H](Cc2ccc(C)cc2)N2CC/C=C\C[C@@H](C2=O)N(C)C(=O)CN(C)C1=O [PP2437] | A (a compound having 10 or more and less than 20 is denoted as A) | A (a compound having 10 or more and less than 20 is denoted as A)
12 | 0.64 | 41.4 | CCO[C@@H]1C[C@H]2C(=O)NC3(CC(C)(C)C3)C(=O)N(C)[C@@H](C(CC)CC)C(=O)N(C)[C@H](C(=O)N(C)C)CC(=O)N(C)[C@@H](COC)C(=O)N[C@@H]([C@@H](C)CC)C(=O)N(C)CC(=O)N(C)[C@H]3C/C=C\CCN(C3=O)[C@@H](CC3CCC(F)(F)CC3)C(=O)N(C)CC(=O)N[C@@H](CCc3ccc(C(F)(F)F)c(OC)c3)C(=O)N2C1 [PP2438] | A (a compound having 10 or more and less than 20 is denoted as A) | A (a compound having 10 or more and less than 20 is denoted as A)
13 | 0.12 | 6.6 | CCOC[C@H]1C(=O)N[C@@H]([C@@H](C)CC)C(=O)N(C)CC(=O)N(C)[C@H]2C/C=C\CCN(C2=O)[C@@H](Cc2ccc(C)cc2)C(=O)N(C)CC(=O)N[C@@H](CCc2cc(F)c(C(F)(F)F)c(F)c2)C(=O)N2C[C@@H](C)C[C@H]2C(=O)NC2(CC(C)(C)C2)C(=O)N(C)[C@@H](C2CCCC2)C(=O)N(C)[C@H](C(=O)N(C)C)CC(=O)N1C [PP2439] | A (a compound having 10 or more and less than 20 is denoted as A) | A (a compound having 10 or more and less than 20 is denoted as A)
14 | 0.44 | 20.1 | CCO[C@@H]1C[C@H]2C(=O)NC3(CC(C)(C)C3)C(=O)N(C)[C@@H](C(CC)CC)C(=O)N(C)[C@H](C(=O)N(C)C)CC(=O)N(C)[C@@H](COC)C(=O)N[C@@H]([C@@H](C)CC)C(=O)N(C)CC(=O)N(C)[C@H]3C/C=C\CCN(C3=O)[C@@H](CC3CCC(F)(F)CC3)C(=O)N(C)CC(=O)N[C@@H](CCc3cc(F)c(C(F)(F)F)c(F)c3)C(=O)N2C1 [PP2440] | A (a compound having 10 or more and less than 20 is denoted as A) | A (a compound having 10 or more and less than 20 is denoted as A)
15 | 0.29 | 22.9 | CC[C@H](C)[C@@H]1NC(=O)[C@H](COC)N(C)C(=O)C[C@@H](C(=O)N(CC)CC)N(C)C(=O)[C@H](C2CCCC2)N(C)C(=O)C2(CC(C)(C)C2)NC(=O)[C@@H]2C[C@H](C)CN2C(=O)[C@H](CCc2ccc(C(F)(F)F)c(OC)c2)NC(=O)CN(C)C(=O)[C@H](Cc2ccc(C)cc2)N2CC/C=C\C[C@@H](C2=O)N(C)C(=O)CN(C)C1=O [PP2441] | A (a compound having 10 or more and less than 20 is denoted as A) | AA (a compound having 20 or more is denoted as AA)
